US7405228B2, “Antibacterial cyano-(substituted)-methylenepiperidinophenyl oxazolidinones targeting multiple ribonucleoprotein sites” (Wockhardt Limited, priority 2002, dated 2008)
Converted amounts (≈) assume the structure as drawn.

Assays:
[1] = test system: MRSA 032; assay: MIC determination, linezolid sensitive MRSA 032 (MRSA-32); assay type: cell-based; details: Staphylococcus aureus, read-out: MIC MRSA 32
Procedure: (§1) Infecting doses of organisms given by intraperitoneal route in 5% hog gastric mucin were 10^3-10^4 CFU (colony forming units)/animal for SPN 6303 and 10^8 CFU/animal for MRSA-32. In case of MRSA-32, Linezolid was administered by oral route, 1 and 4 h post infection, BID (twice a day) for 1 day and for SPN 6303 BID for 2 days. […] MICs of Methicillin Resistant Staphylococcus aureus-32 Linezolid resistant (MRSA-32 LNZR), S. pneumoniae 744 Linezolid resistant (SPN 744 LNZR) and parent Linezolid sensitive strains MRSA-32 and SPN 6303 were determined for Linezolid by NCCLS agar dilution method.
(§2) Cultures were further diluted 1:10 in Mueller Hinton broth. Using Denley's mutipoint inoculator, 10^4 cells were deposited on Mueller Hinton agar (Difco) containing range of 2 fold dilutions of test compounds. […] MIC is defined as minimum drug concentration that inhibits test organisms. For determining MIC of test compounds against Streptococcus pneumoniae, Mueller Hinton agar containing 5% sheep blood was employed.

[2] = test system: S. aureus MRSA-32 LNZR; assay: MIC determination, linezolid resistant S. aureus MRSA-32 LNZR; assay type: cell-based; details: Staphylococcus aureus, 24 h, read-out: MIC MRSA 32 LNZR
Procedure: as §1, §2

[3] = test system: SPN 49619; assay: MIC determination, linezolid sensitive SPN 49619; assay type: cell-based; details: Streptococcus pneumoniae; linezolid sensitive strain, Table 3
[4] = test system: SPN 744 LNZR; assay: MIC determination, linezolid resistant SPN 744 LNZR; assay type: cell-based; details: Streptococcus pneumoniae, read-out: MIC SPN744 LNZR
Procedure: as §1, §2

[5] = test system: E. faecium 367 LNZR; assay: MIC determination, linezolid resistant E. faecium 367 LNZR; assay type: cell-based; details: Enterococcus faecium, read-out: MIC E. faecium 367 LNZR
Procedure: E. faecium ATCC 19434 strain at a cell density of 10^6/ml was inoculated in Mueller Hinton broth medium containing Linezolid at a concentration of 5 and 7.5 mcg/ml. The stationary culture was incubated at 37° C. and inspected at every 24 hours to assess the formation of turbidity due to the onset of bacterial growth. […] A 50 microliter sample of turbid flask was plated on Mueller Hinton agar medium incorporated with linezolid at 7.5 mcg/ml. The agar plates were incubated for 48 hours at 37° C. for the formation of discrete colonies of linezolid-resistant strain of E. faecium (E. faecium 367 LNZR). MICs of resistant mutant E. faecium 367 LNZR and parent strain E. faecium ATCC 19434 were determined for linezolid by NCCLS method.
as §2

| Compound | MIC [1] [µg/mL] | MIC [3] [µg/mL] | melting point [°C] | other results |
| --- | --- | --- | --- | --- |
| CC(=O)NC[C@H]1CN(c2ccc(N3CC/C(=C\C#N)C(F)C3)c(F)c2)C(=O)O1 (stereo partly drawn) [56 (E), E-(S)-N-{3-[4-(4-cyanomethylidene-3-fluoropiperidin-1-yl)-3-fluorophenyl]-2-oxo-oxazolidin-5-ylmethyl}-acetamide] | 0.8 (≈ 2.05 µM) | 0.8 (≈ 2.05 µM) |  | MIC [2]: 12.5 µg/mL (≈ 32 µM); MIC [4]: 6.25 µg/mL (≈ 16 µM); MIC [5]: 6.25 µg/mL (≈ 16 µM) |
| CC(=S)NC[C@H]1CN(c2ccc(N3CCC(=C(C#N)C#N)CC3)c(F)c2)C(=O)O1 [Example 119, (S)-N-{3-[4-(4-(1,1-dicyano-methylidene)-piperidin-1-yl)-3-fluorophenyl]-2-oxo-oxazolidin-5-ylmethyl}-thioacetamide] | 0.4 (≈ 0.967 µM) | 0.8 (≈ 1.93 µM) |  |  |
| CC(=S)NC[C@H]1CN(c2ccc(N3CCC(=C(C#N)C(=S)N4CCOCC4)CC3)c(F)c2)C(=O)O1 [Example 121, (S)-N-{3-[4-(4-(1-cyano-1-(morpholin-1-yl-thiocarbonyl)-methylidene)-piperidin-1-yl)-3-fluorophenyl]-2-oxo-oxazolidin-5-ylmethyl}-thioacetamide] | 0.4 (≈ 0.773 µM) | 0.2 (≈ 0.386 µM) |  | MIC [2]: 6.25 µg/mL (≈ 12.1 µM); MIC [4]: 1.56 µg/mL (≈ 3.01 µM) |
| CC(=S)NC[C@H]1CN(c2ccc(N3CCC(=CC#N)CC3)c(F)c2)C(=O)O1 [Example 45, (S)-N-{3-[4-(4-cyanomethylidene-piperidin-1-yl)-3-fluorophenyl]-2-oxo-oxazolidin-5-ylmethyl}-thioacetamide] | 0.2 (≈ 0.515 µM) | 0.2 (≈ 0.515 µM) |  | MIC [2]: 3.12 µg/mL (≈ 8.03 µM); MIC [4]: 3.12 µg/mL (≈ 8.03 µM) |
| CC1CN(c2ccc(N3C[C@H](CNC(N)=S)OC3=O)cc2F)CC/C1=C\C#N (stereo partly drawn) [Example 68, (S)-N-{3-[4-(4-cyanomethylidene-3-methylpiperidin-1-yl)-3-fluorophenyl]-2-oxo-oxazolidin-5-ylmethyl}-thiocarbamide] | 0.4 (≈ 0.991 µM) | 0.4 (≈ 0.991 µM) |  | MIC [2]: 6.25 µg/mL (≈ 15.5 µM); MIC [4]: 3.12 µg/mL (≈ 7.73 µM); MIC [5]: 3.12 µg/mL (≈ 7.73 µM) |
| CC(C#N)=C1CCN(c2ccc(N3C[C@H](CNC(=O)C(F)F)OC3=O)cc2F)CC1 [Example 77, (S)-N-{3-[4-(4-(1-cyanoethylidene)-piperidin-1-yl)-3-fluorophenyl]-2-oxo-oxazolidin-5-ylmethyl}-difluoroacetamide] |  |  |  | MIC [2]: 12.5 µg/mL (≈ 29.6 µM); MIC [4]: 6.25 µg/mL (≈ 14.8 µM); MIC [5]: 6.25 µg/mL (≈ 14.8 µM) |
| N#C/C=C1\CCN(c2ccc(N3C[C@H](CNC(=O)C(F)F)OC3=O)cc2F)CC1F (stereo partly drawn) [Example 57, (S)-N-{3-[4-(4-cyanomethylidene-3-fluoropiperidin-1-yl)-3-fluorophenyl]-2-oxo-oxazolidin-5-ylmethyl}-difluoroacetamide] |  |  |  | MIC [2]: 12.5 µg/mL (≈ 29.3 µM); MIC [4]: 6.25 µg/mL (≈ 14.7 µM); MIC [5]: 6.25 µg/mL (≈ 14.7 µM) |
| CC(C#N)=C1CCN(c2ccc(N3C[C@H](CNC(=O)C(Cl)Cl)OC3=O)cc2F)CC1 [Example 79, (S)-N-{3-[4-(4-(1-cyanoethylidene)-piperidin-1-yl)-3-fluorophenyl]-2-oxo-oxazolidin-5-ylmethyl}-dichloroacetamide] | 0.8 (≈ 1.76 µM) | 0.8 (≈ 1.76 µM) |  |  |
| N#CCC1CCN(c2ccc(N3CC(Cn4cc(C(N)=O)nn4)OC3=O)cc2F)CC1 (stereo in doubt) [Example 127, (S)-1-{3-[4-(4-cyanomethyl-piperidin-1-yl)-3-fluorophenyl]-2-oxo-oxazolidin-5-ylmethyl}-4-carboxamido-1,2,3-triazole] |  |  | 248 to 250 |  |
| CC(=O)NC[C@H]1CN(c2ccc(N3CC=C(CC#N)C(C)C3)c(F)c2)C(=O)O1 (stereo partly drawn) [Example 161, (S)-N-{3-[4-(4-cyanomethyl-3-methyl-4,5-dehydropiperidin-1-yl)-3-fluorophenyl]-2-oxo-oxazolidin-5-ylmethyl}-acetamide] |  |  | 149 to 150 |  |
| CC(C#N)=C1CCN(c2ccc(N3C[C@H](CNC(=O)C(Cl)(Cl)Cl)OC3=O)cc2F)CC1 [Example 80, (S)-N-{3-[4-(4-(1-cyanoethylidene)-piperidin-1-yl)-3-fluorophenyl]-2-oxo-oxazolidin-5-ylmethyl}-trichloroacetamide] |  |  | 166 to 168 |  |
| CC(=O)NC[C@H]1CN(c2ccc(N3CCC(=C(C#N)c4cccs4)CC3)c(F)c2)C(=O)O1 [Example 105, (S)-N-{3-[4-(4-(1-cyano-1-(thiophen-2-yl)-methylidene)-piperidin-1-yl)-3-fluorophenyl]-2-oxo-oxazolidin-5-ylmethyl}-acetamide] | 0.8 (≈ 1.76 µM) | 0.8 (≈ 1.76 µM) |  |  |
| CC(=O)NC[C@H]1CN(c2ccc(N3CCC(=C(C)C#N)CC3)cc2)C(=O)O1 [Example 72, (S)-N-{3-[4-(4-(1-cyanoethylidene)-piperidin-1-yl)-phenyl]-2-oxo-oxazolidin-5-ylmethyl}-acetamide] |  |  | 94 to 96 |  |
| CCOC(=O)c1cnnn1CC1CN(c2ccc(N3CCC(=CC#N)CC3)c(F)c2)C(=O)O1 (stereo in doubt) [Example 27, (S)-1-{3-[4-(4-cyanomethylidene-piperidin-1-yl)-3-fluorophenyl]-2-oxo-oxazolidin-5-ylmethyl}-5-carboethoxy-1,2,3-triazole] |  |  | 70 to 72 |  |
| CC(C#N)=C1CCN(c2ccc(N3C[C@H](COc4ccon4)OC3=O)cc2F)CC1 [Example 83, (R)-3-{3-[4-(4-(1-cyanoethylidene)-piperidin-1-yl)-3-fluorophenyl]-2-oxo-oxazolidin-5-ylmethyloxy}-iso-oxazole] |  |  | 137 to 138 |  |
| CS(=O)(=O)OC[C@H]1CN(c2ccc(N3CCC(=CC#N)CC3)c(F)c2)C(=O)O1 [Example 54, (R)-{3-[4-(4-cyanomethylidene-piperidin-1-yl)-3-fluorophenyl]-2-oxo-oxazolidin-5-ylmethyl}-methanesulphonate] |  |  | 126 to 128 |  |
| CCC(C#N)=C1CCN(c2ccc(N3C[C@H](CNC(C)=O)OC3=O)cc2F)CC1 [Example 89, (S)-N-{3-[4-(4-(1-cyanopropylidene)-piperidin-1-yl)-3-fluorophenyl]-2-oxo-oxazolidin-5-ylmethyl}-acetamide] |  |  |  | MIC [2]: 25 µg/mL (≈ 62.4 µM); MIC [4]: 12.5 µg/mL (≈ 31.2 µM); MIC [5]: 6.25 µg/mL (≈ 15.6 µM) |
| CNC(=S)NC[C@H]1CN(c2ccc(N3CCC(=CC#N)CC3)c(F)c2)C(=O)O1 [Example 52, (S)-N-{3-[4-(4-cyanomethylidene-piperidin-1-yl)-3-fluorophenyl]-2-oxo-oxazolidin-5-ylmethyl}-methylthiocarbamide] |  |  | 191 to 192 |  |
| CC(=O)NC[C@H]1CN(c2ccc(N3CC/C(=C(/C)C#N)C(F)C3)c(F)c2)C(=O)O1 (stereo partly drawn) [Example 85, (S)-N-{3-[4-(4-(1-cyanoethylidene)-3-fluoropiperidin-1-yl)-3-fluorophenyl]-2-oxo-oxazolidin-5-ylmethyl}-acetamide] |  |  | 148 to 150 |  |
| N#CC=C1CCN(c2ccc(N3C[C@H](CNC(=O)CI)OC3=O)cc2F)CC1 [Example 36, (S)-N-{3-[4-(4-cyanomethylidene-piperidin-1-yl)-3-fluorophenyl]-2-oxo-oxazolidin-5-ylmethyl}-iodoacetamide] |  |  | 178 to 180 |  |
| N#CC=C1CCN(c2ccc(N3C[C@H](CNC(=O)C(F)F)OC3=O)cc2F)CC1 [Example 29, (S)-N-{3-[4-(4-cyanomethylidene-piperidin-1-yl)-3-fluorophenyl]-2-oxo-oxazolidin-5-ylmethyl}-difluoroacetamide] |  |  | 162 to 164 |  |
| CC(C#N)=C1CCN(c2ccc(N3C[C@H](CO)OC3=O)cc2F)CC1 [Example 82, (R)-{3-[4-(4-(1-cyanoethylidene)-piperidin-1-yl)-3-fluorophenyl]-2-oxo-oxazolidin-5-ylmethyl}-alcohol] |  |  | 100 to 102 |  |
| CC(=O)NC[C@H]1CN(c2ccc(N3CCC(C(C#N)n4ccnc4)CC3)c(F)c2)C(=O)O1 (stereo partly drawn) [Example 136, (S)-N-{3-[4-(4-(1-cyano-1-(imidazol-1-yl))-methylpiperidin-1-yl)-3-fluorophenyl]-2-oxo-oxazolidin-5-ylmethyl}-acetamide] |  |  | 210 to 212 |  |
| CC(=S)NC[C@H]1CN(c2ccc(N3CCC(=C(C#N)c4ccccn4)CC3)c(F)c2)C(=O)O1 [Example 118, (S)-N-{3-[4-(4-(1-cyano-1-(pyridin-2-yl)-methylidene)-piperidin-1-yl)-3-fluorophen]-2-oxo-oxazolidin-5-ylmethyl}-thioacetamide] | 0.8 (≈ 1.72 µM) | 0.4 (≈ 0.859 µM) |  |  |
| CCOC(=O)c1cn(C[C@H]2CN(c3ccc(N4CCC(C(C#N)CO)CC4)c(F)c3)C(=O)O2)nn1 (stereo partly drawn) [Example 151, (S)-1-{3-[4-(4-(1-cyano-2-hydroxy)-ethylpiperidin-1-yl)-3-fluorophenyl]-2-oxo-oxazolidin-5-ylmethyl}-4-ethoxycarbonyl-1,2,3-triazole] |  |  | 170 to 172 |  |
